# According to patent US9375419B1 (priority 2014, dated 2016):
# Key:
# [1] = system: human Norovirus replicon (GT1, HG23 cell line); assay: Secondary anti-Norovirus assay, quantitative polymerase chain reaction (replicon); conditions: for Sl50 - CC50/EC50 / Sl90 - CC50/EC90: quantitative PCR (replicon), HG23 cells
# [2] = system: human Norovirus replicon (GT1, HG23 cell line); assay: Primary anti-Norovirus assay, RNA hybridization (replicon); conditions: for Sl50 - CC50/EC50 / Sl90 - CC50/EC90: RNA hybridization (replicon), HG23 cells
# [3] = system: Venezuelan equine encephalalitis virus; format: cell-based
# Human cytomegalovirus = format: cell-based
# Hepatitis B virus = format: cell-based
# Vaccina virus = format: cell-based
# Herpes Simpex Virus 1 = format: cell-based
# Rift valley fever virus = format: cell-based
# [4] = Neutral red (toxicity), secondary assay; conditions: human
# polio virus = format: cell-based
# Hepatitis C virus = format: cell-based
# tacaribe virus = format: cell-based
# [5] = Cytotoxicity by neutral red dye uptake, primary assay; conditions: human
# Adenorovirusirus-5 = format: cell-based
# Herpes Simpex Virus 2 = format: cell-based
# Yellow fever virus = format: cell-based
smiles,measurement,setting,value
"C[C@@]1(O)[C@H](O)[C@@H](CO)O[C@H]1n1ccc(N)nc1=O [2′C-methyl cytidine, reference compound]",Sl50 - CC50/EC50,[1],>50
same,Sl90 - CC50/EC90,[1],>17
same,Sl50 - CC50/EC50,[2],>48
same,Sl90 - CC50/EC90,[2],>16
"COc1c(C)cnc(Cn2cnc3c(Cl)cc(N)cc32)c1C [Compound 1, 4-Chloro-1-((4-methoxy-3,5-dimethylpyridin-2-yl)methyl)-1H-benzo[d]imidazo-6-amine]",antiviral activity,[3],did not have activity
same,antiviral activity,Human cytomegalovirus,did not have activity
same,antiviral activity,Hepatitis B virus,did not have activity
same,EC50,"[1]; Norovirus, GT1, HG23, in Homo sapiens, read-out: EC50 - compound concentration that reduces viral replication by 50%",1.4 µM
same,EC90,"[1]; Norovirus, GT1, HG23, in Homo sapiens, read-out: EC90 - compound concentration that reduces viral replication by 90%",8.5 µM
same,Sl50 - CC50/EC50,[1],>36
same,Sl90 - CC50/EC90,[1],>6
same,"activity against Norovirus, data confirmed in the secondary assay",[1]; secondary assay,confirmed
same,antiviral activity,Vaccina virus,did not have activity
same,antiviral activity,Herpes Simpex Virus 1,did not have activity
same,antiviral activity,Rift valley fever virus,did not have activity
same,CC50 at 3 day,[4],> 50 µM
same,antiviral activity,polio virus,did not have activity
same,antiviral activity,Hepatitis C virus,did not have activity
same,antiviral activity,tacaribe virus,did not have activity
same,CC50 at 3 day,[5],> 100 µM
same,antiviral activity,Adenorovirusirus-5,did not have activity
same,antiviral activity,Herpes Simpex Virus 2,did not have activity
same,antiviral activity,Yellow fever virus,did not have activity
same,EC50,"[2]; Norovirus, GT1, HG23, in Homo sapiens, 72 h, read-out: EC50 - compound concentration that reduces viral replication by 50%",0.617 µM
same,EC90,"[2]; Norovirus, GT1, HG23, in Homo sapiens, 72 h, read-out: EC90 - compound concentration that reduces viral replication by 90%",7.5 µM
same,Sl50 - CC50/EC50,[2],>162
same,Sl90 - CC50/EC90,[2],>13
same,activity against Norovirus in the primary screen,[2]; primary screen,active
